From US20080113946A1, “N-aryl-5,7-dihydrofuro[3,4-d]pyrimidin-4-amines and analogs as activators of caspases and inducers of apoptosis and the use thereof” (Cyntovia, Inc., priority 2006, published 2008)
Like-named read-outs stand apart in the source and are kept apart here.

Columns and labels:
Format in all cases: cell-based
[1] = test system: human hepatocellular carcinoma cell line SNU398; experiment: Caspase cascade activation (Ac-DEVD-R110 fluorogenic substrate) in SNU398 cells
Procedure: (§1) Human breast cancer cell line T-47D, human hepatocellular carcinoma cell line SNU398 and human colon carcinoma cell line HCT116 were grown according to media component mixtures designated by American Type Culture Collection+10% FCS (Invitrogen Corporation), in a 5% CO2-95% humidity incubator at 37° C. T-47D and H1299 cells were maintained at a cell density between 50 and 80% confluency at a cell density of 0.1 to 0.6×10^6 cells/mL. Cells were harvested at 600×g and resuspended at 0.65×10^6 cells/mL into appropriate media+10% FCS. An aliquot of 22.5 μL of cells was added to a well of a 384-well microtiter plate containing 2.5 μL of a 10% DMSO in RPMI-1640 media solution containing 0.16 to 100 μM of 5,7-dihydro-N-(3,5-dimethoxyphenyl)-2-(methylthio)furo[3,4-d]pyrimidin-4-amine or other test compound (0.016 to 10 μM final). An aliquot of 22.5 μL of cells was added to a well of a 384-well microtiter plate containing 2.5 μL of a 10% DMSO in RPMI-1640 media solution without test compound as the control sample. The samples were mixed by agitation and then incubated at 37° C. for 24 or 48 h in a 5% CO2-95% humidity incubator. After incubation, the samples were removed from the incubator and 25 μL of a solution containing 14 μM of N-(Ac-DEVD)-N′-ethoxycarbonyl-R110 (SEQ ID No.:1) fluorogenic substrate (Cytovia, Inc.; WO99/18856), 20% sucrose (Sigma), 20 mM DTT (Sigma), 200 mM NaCl (Sigma), 40 mM Na PIPES buffer pH 7.2 (Sigma), and 500 µg/mL lysolecithin (Calbiochem) was added. The samples were mixed by agitation and incubated at room temperature. Using a fluorescent plate reader (Model SPECTRAfluor Plus, Tecan), an initial reading (T=0) was made approximately 1-2 min after addition of the substrate solution, employing excitation at 485 nm and emission at 530 nm, to determine the background fluorescence of the control sample. After the 3 h incubation, the samples were read for fluorescence as above (T=3 h).
(§2) The Relative Fluorescence Unit values (RFU) were used to calculate the sample readings as follows: RFU(T=3h)−Control RFU(T=0)=Net RFU(T=3h)
(§3) The activity of caspase cascade activation was determined by the ratio of the net RFU value for 5,7-dihydro-N-(3,5-dimethoxyphenyl)-2-(methylthio)furo[3,4-d]pyrimidin-4-amino or other test compound to that of control samples. The EC50 (nM) was determined by a sigmoidal dose-response calculation (Prism 3.0, GraphPad Software Inc.).

[2] = test system: HCT116 cells; experiment: Inhibition of cell proliferation (GI50, CellTiter-Glo) in HCT116 cells; settings: Homo sapiens, HCT-116, 48 h, read-out: GI50 in Cancer Cells HCT116
Procedure: (§4) T-47D, MX-1, SNU398 and HCT116 cells were grown and harvested as in Example 33. An aliquot of 90 μL of cells (4.4×10^4 cells/mL) was added to a well of a 96-well microtiter plate containing 5 μL of a 10% DMSO in RPMI-1640 media solution containing 10 nM to 100 μM of 5,7-dihydro-N-(3,5-dimethoxyphenyl)-2-(methylthio)furo[3,4-d]pyrimidin-4-amine (1 nM to 10 μM final) or related compounds. An aliquot of […] of cells was added to a well of a 96-well microtiter plate containing 5 μL of a 10% DMSO in RPMI-1640 media solution without compound as the control sample for maximal cell proliferation (LMax). The samples were mixed by agitation and then incubated at 37° C. for 48 h in a 5% CO2-95% humidity incubator. After incubation, the samples were removed from the incubator and 25 μL of CellTiter-Glo™ reagent (Promega) was added. The samples were mixed by agitation and incubated at room temperature for 10-15 min. Plates were then read using a luminescent plate reader (Model SPECTRAfluor Plus, Tecan) to give Ltest values.
(§5) Baseline for GI50 (dose for 50% inhibition of cell proliferation) of initial cell numbers was determined by adding an aliquot of 45 μL of cells or 45 μL of media, respectively, to wells of a 96-well microtiter plate containing 5 μL of a 10% DMSO in RPMI-1640 media solution. The samples were mixed by agitation and then incubated at 37° C. for 0.5 h in a 5% CO2-95% humidity incubator. After incubation, the samples were removed from the incubator and 25 μL of CellTiter-Glo™ reagent (Promega) was added. The samples were mixed by agitation and incubated at 37° C. for 10-15 min at room temperature in a 5% CO2-95% humidity incubator. Fluorescence was read as above, (LStart) defining luminescence for initial cell number used as baseline in GI50 determinations.
(§6) GI50 (dose for 50% inhibition of cell proliferation) is the concentration where [(LTest−LStart)/(LMax−LStart)]=0.5.

[3] = test system: T-47D cells; experiment: Inhibition of cell proliferation (GI50, CellTiter-Glo) in T-47D cells; settings: Homo sapiens, T47D, 48 h, read-out: GI50 in Cancer Cells T47D
Procedure: as §4, §5, §6

[4] = test system: human colon carcinoma cell line HCT116; experiment: Caspase cascade activation (Ac-DEVD-R110 fluorogenic substrate) in HCT116 cells; settings: HCT-116, incubated 24 or 48 h (Table I), 0.016 to 10 μM final, read-out: Caspase Activation Potency EC50 HCT116
Procedure: as §1, §2, §3

[5] = test system: MX-1 cells; experiment: Inhibition of cell proliferation (GI50, CellTiter-Glo) in MX-1 cells; settings: Homo sapiens, MX1, 48 h, read-out: GI50 in Cancer Cells MX1
Procedure: as §4, §5, §6

[6] = test system: Human breast cancer cell line T-47D; experiment: Caspase cascade activation (Ac-DEVD-R110 fluorogenic substrate) in T-47D cells; settings: T47D
Procedure: as §1, §2, §3

[7] = test system: breast cancer cell line SKBR3; experiment: Caspase cascade activation (24 h assay) in SKBR3 cells; settings: Homo sapiens, SK-BR-3, 24 h assay (Table II), read-out: Caspase Activation Potency EC50 (24 h) SKBR3
Procedure: [The procedure below names another cell line; the source lists this cell line under the same test.] Human breast cancer cell line T-47D, human hepatocellular carcinoma cell line SNU398 and human colon carcinoma cell line HCT116 were grown according to media component mixtures designated by American Type Culture Collection+10% FCS (Invitrogen Corporation), in a 5% CO2-95% humidity incubator at 37° C. T-47D and H1299 cells were maintained at a cell density between 50 and 80% confluency at a cell density of 0.1 to 0.6×10^6 cells/mL. Cells were harvested at 600×g and resuspended at 0.65×10^6 cells/mL into appropriate media+10% FCS. […] Using a fluorescent plate reader (Model SPECTRAfluor Plus, Tecan), an initial reading (T=0) was made approximately 1-2 min after addition of the substrate solution, employing excitation at 485 nm and emission at 530 nm, to determine the background fluorescence of the control sample. After the 3 h incubation, the samples were read for fluorescence as above (T=3 h).
as §2
as §3, with “Inc.). […]” for “Inc.).”

[8] = test system: SNU398 cells; experiment: Inhibition of cell proliferation (GI50, CellTiter-Glo) in SNU398 cells; settings: Homo sapiens, SNU-398, 48 h, read-out: GI50 in Cancer Cells SNU398
Procedure: as §4, §5, §6

[9] = test system: human lung cancer cell line H1299; experiment: Caspase cascade activation (24 h assay) in H1299 cells; settings: NCI-H1299, 24 h assay (Table II), read-out: Caspase Activation Potency EC50 (24 h) H1299
Procedure: as §1, with “After incubation, the samples were removed from the incubator and 25 μL of a solution containing 14 μM of N-(Ac-DEVD)-N′-ethoxycarbonyl-R110 (SEQ ID No.:1) fluorogenic substrate (Cytovia, Inc.; WO99/18856), 20% sucrose (Sigma), 20 mM DTT (Sigma), 200 mM NaCl (Sigma), 40 mM Na PIPES buffer pH 7.2 (Sigma), and 500 µg/mL lysolecithin (Calbiochem) was added. The samples were mixed by agitation and incubated at room temperature.” left out
as §2
as §3, with “Inc.). […]” for “Inc.).”

[10] = test system: human breast cancer cell lines MDAMB435; experiment: Inhibition of cell proliferation (GI50) in MDAMB435 cells; settings: MDA-MB-435, read-out: GI50 in Multi-Cancer Cells MDAMB435
Procedure: [The procedure below names another cell line; the source lists this cell line under the same test.] as §4
(§7) Baseline for GI50 (dose for 50% inhibition of cell proliferation) of initial cell numbers was determined by adding an aliquot of 45 μL of cells or 45 μL of media, respectively, to wells of a 96-well microtiter plate containing 5 μL of a 10% DMSO in RPMI-1640 media solution. […]

[11] = test system: multi-drug resistant (MDR) murine leukemia cell line P388ADR; experiment: Inhibition of cell proliferation (GI50) in P388ADR cells; settings: Mus musculus, P388/ADR, read-out: GI50 in Multi-Cancer Cells P388ADR
Procedure: [The procedure below names another organism; the source lists this organism under the same test.] as §4, §7

[12] = test system: murine leukemia cell line P388; experiment: Inhibition of cell proliferation (GI50) in P388 cells; settings: Mus musculus, read-out: GI50 in Multi-Cancer Cells P388
Procedure: [The procedure below names another organism; the source lists this organism under the same test.] as §4, §7

[13] = test system: multi-drug resistant (MDR) human sarcoma cell line MES-SA/ADR; experiment: Inhibition of cell proliferation (GI50) in MES-SA/ADR cells; settings: read-out: GI50 in Multi-Cancer Cells MES-SA/ADR
Procedure: [The procedure below names another cell line; the source lists this cell line under the same test.] as §4, §7

[14] = test system: human sarcoma cell line MES-SA; experiment: Inhibition of cell proliferation (GI50) in MES-SA cells; settings: read-out: GI50 in Multi-Cancer Cells MES-SA
Procedure: [The procedure below names another cell line; the source lists this cell line under the same test.] as §4, §7

[15] = SNU-398, 24 h assay (Table II), read-out: Caspase Activation Potency EC50 (24 h) SNU398
[16] = SNU-398, incubated 24 or 48 h (Table I), 0.016 to 10 μM final, read-out: Caspase Activation Potency EC50 SNU398
[17] = 24 h assay (Table II), read-out: Caspase Activation Potency EC50 (24 h) T47D
[18] = T-47D, incubated 24 or 48 h (Table I), 0.016 to 10 μM final, read-out: Caspase Activation Potency EC50 T-47D

Row | SMILES | EC50 [1, 15] [nM] | EC50 [1, 16] [nM] | GI50 [2] [nM] | GI50 [3] [nM] | EC50 [4] [nM] | EC50 [6, 17] [nM] | EC50 [6, 18] [nM] | EC50 [7] [nM] | GI50 [8] [nM] | EC50 [9] [nM] | GI50 [10] [nM] | GI50 [11] [nM] | GI50 [12] [nM] | GI50 [13] [nM] | GI50 [14] [nM] | GI50 [5] [nM]
1 | COc1cc(Nc2nc(SC)nc3c2COC3)cc(OC)c1 [Example 7, 5,7-Dihydro-N-(3,5-dimethoxyphenyl)-2-(methylthio)furo[3,4-d]pyrimidin-4-amine] | > 10000 | 4710 | 3000 | 183 | 5500 | 54 | 61 | 118 | 3740 | – | – | – | – | – | – | 27
2 | COc1ccc(OC)c(Nc2nc(SC)nc3c2CCC3)c1 [Example 18, 6,7-Dihydro-N-(2,5-dimethoxyphenyl)-2-(methylthio)-5H-cyclopenta[d]pyrimidin-4-amine] | > 10000 | 1320 | > 10000 | 21 | 286 | 82 | 134 | – | > 10000 | 934 | – | – | – | – | – | 200
3 | COc1ccc(N(C)c2nc(SC)nc3c2CCC3)cc1 [Example 23, 6,7-Dihydro-N-(4-methoxyphenyl)-N-methyl-2-(methylthio)-5H-cyclopenta[d]pyrimidin-4-amine] | 35 | – | – | 46 | – | 32 | 31 | – | – | 43 | 4 | 21 | 14 | 26 | 26 | 50
4 | O=C(Nc1ccc(Nc2ncnc3c2CCC3)cc1)c1ccccc1 [Example 26, N-(4-(6,7-Dihydro-5H-cyclopenta[d]pyrimidin-4-ylamino)phenyl)benzamide] | – | > 10000 | – | – | > 10000 | – | > 10000 | – | – | – | – | – | – | – | – | –

Continued by falling EC50 [6, 18], values first:

Row | EC50 [1, 15] [nM] | EC50 [1, 16] [nM] | GI50 [2] [nM] | GI50 [3] [nM] | EC50 [4] [nM] | EC50 [6, 17] [nM] | EC50 [6, 18] [nM] | EC50 [7] [nM] | GI50 [8] [nM] | EC50 [9] [nM] | GI50 [10] [nM] | GI50 [11] [nM] | GI50 [12] [nM] | GI50 [13] [nM] | GI50 [14] [nM] | SMILES | GI50 [5] [nM]
5 | – | > 10000 | > 10000 | 5000 | > 10000 | – | 987 | – | > 10000 | – | – | – | – | – | – | COc1cc(Nc2ncnc3c2CCC3)cc(OC)c1 [Example 24, 6,7-Dihydro-N-(3,5-dimethoxyphenyl)-5H-cyclopenta[d]pyrimidin-4-amine] | 5000
6 | > 10000 | > 10000 | > 10000 | 1000 | > 10000 | 244 | 260 | 355 | > 10000 | > 10000 | – | – | – | – | – | COc1ccc(OC)c(Nc2ncnc3c2CCC3)c1 [Example 25, 6,7-Dihydro-N-(2,5-dimethoxyphenyl)-5H-cyclopenta[d]pyrimidin-4-amine] | 890
